# Assay results: ChEMBL document CHEMBL5212743, “Selectivity Literature for EUbOPEN Chemogenomics Library wave 3” (2023)
# How the values were obtained:
# Histamine H4 receptor = Histamine H4 receptor (Homo sapiens, UniProt Q9H3N8); assay: Selectivity interaction (GPCR panel (PDSP screen)) EUB0000342a HRH4
# D(1A) dopamine receptor = D(1A) dopamine receptor (Homo sapiens, UniProt P21728); assay: Selectivity interaction (GPCR panel (PDSP screen)) EUB0000342a DRD1
# [1] = tested on: Mast/stem cell growth factor receptor Kit (Homo sapiens), P10721 [L576P]; assay: Selectivity interaction (KinomeScan (DiscoverX)) EUB0000306b KIT; conditions: at 1 µM
# [2] = target: T1, Gamma-aminobutyric acid receptor subunit alpha-1 (Homo sapiens, UniProt P14867); assay: Selectivity interaction (GPCR panel (PDSP screen)) EUB0000306b GABRA1
# T1 sequence (P14867 whole entry): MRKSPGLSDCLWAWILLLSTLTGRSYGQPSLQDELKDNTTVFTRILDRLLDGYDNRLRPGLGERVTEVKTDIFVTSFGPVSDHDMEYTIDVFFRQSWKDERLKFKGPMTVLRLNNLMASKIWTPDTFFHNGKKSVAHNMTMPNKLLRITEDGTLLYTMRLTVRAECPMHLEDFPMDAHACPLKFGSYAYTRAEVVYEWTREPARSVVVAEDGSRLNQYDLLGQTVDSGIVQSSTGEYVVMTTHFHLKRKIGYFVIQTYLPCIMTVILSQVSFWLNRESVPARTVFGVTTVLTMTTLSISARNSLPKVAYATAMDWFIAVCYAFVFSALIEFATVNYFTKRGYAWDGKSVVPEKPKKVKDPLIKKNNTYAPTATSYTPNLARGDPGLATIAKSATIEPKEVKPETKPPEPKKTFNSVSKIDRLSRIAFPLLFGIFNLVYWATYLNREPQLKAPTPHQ
# [3] = target: Phosphatidylinositol 4,5-bisphosphate 3-kinase catalytic subunit alpha isoform (Homo sapiens, UniProt P42336); assay: Selectivity interaction (KinomeScan (DiscoverX)) EUB0000306b PIK3CA; conditions: at 1 µM
# [4] = target: T2, Serine/threonine-protein kinase TAO3 (Homo sapiens) (UniProt Q9H2K8); assay: Selectivity interaction (KinomeScan (DiscoverX)) EUB0000306b TAOK3; conditions: at 1 µM
# T2 sequence (whole entry): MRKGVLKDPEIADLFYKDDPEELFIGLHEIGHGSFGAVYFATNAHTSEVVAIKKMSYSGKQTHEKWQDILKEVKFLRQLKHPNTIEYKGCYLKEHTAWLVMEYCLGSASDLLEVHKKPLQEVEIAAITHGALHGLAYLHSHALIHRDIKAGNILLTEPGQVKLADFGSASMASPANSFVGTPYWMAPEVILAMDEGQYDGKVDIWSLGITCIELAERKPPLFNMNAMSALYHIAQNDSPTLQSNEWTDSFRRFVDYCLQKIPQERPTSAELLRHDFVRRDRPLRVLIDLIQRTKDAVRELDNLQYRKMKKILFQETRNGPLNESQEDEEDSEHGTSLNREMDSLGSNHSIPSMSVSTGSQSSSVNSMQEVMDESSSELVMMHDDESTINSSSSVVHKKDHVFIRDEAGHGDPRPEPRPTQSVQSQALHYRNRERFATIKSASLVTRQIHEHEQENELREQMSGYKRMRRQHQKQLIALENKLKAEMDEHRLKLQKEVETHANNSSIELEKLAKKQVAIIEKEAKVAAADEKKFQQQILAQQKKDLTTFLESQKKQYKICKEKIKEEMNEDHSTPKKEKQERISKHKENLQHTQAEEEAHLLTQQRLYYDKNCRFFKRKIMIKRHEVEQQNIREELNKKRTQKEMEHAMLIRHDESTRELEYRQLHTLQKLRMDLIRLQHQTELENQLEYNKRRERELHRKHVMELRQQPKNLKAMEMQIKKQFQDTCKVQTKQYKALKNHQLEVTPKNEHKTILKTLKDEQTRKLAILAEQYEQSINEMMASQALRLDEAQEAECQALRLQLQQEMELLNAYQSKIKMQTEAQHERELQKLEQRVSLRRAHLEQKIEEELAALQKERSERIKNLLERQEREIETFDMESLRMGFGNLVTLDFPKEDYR
# [5] = target: 5-hydroxytryptamine receptor 2C (Homo sapiens, UniProt P28335); assay: Selectivity interaction (GPCR panel (PDSP screen)) EUB0000540a HTR2C
# [6] = target: T3, Alpha-2C adrenergic receptor (Homo sapiens, UniProt P18825); assay: Selectivity interaction (GPCR panel (PDSP screen)) EUB0000540a ADRA2C
# T3 sequence (P18825 whole entry): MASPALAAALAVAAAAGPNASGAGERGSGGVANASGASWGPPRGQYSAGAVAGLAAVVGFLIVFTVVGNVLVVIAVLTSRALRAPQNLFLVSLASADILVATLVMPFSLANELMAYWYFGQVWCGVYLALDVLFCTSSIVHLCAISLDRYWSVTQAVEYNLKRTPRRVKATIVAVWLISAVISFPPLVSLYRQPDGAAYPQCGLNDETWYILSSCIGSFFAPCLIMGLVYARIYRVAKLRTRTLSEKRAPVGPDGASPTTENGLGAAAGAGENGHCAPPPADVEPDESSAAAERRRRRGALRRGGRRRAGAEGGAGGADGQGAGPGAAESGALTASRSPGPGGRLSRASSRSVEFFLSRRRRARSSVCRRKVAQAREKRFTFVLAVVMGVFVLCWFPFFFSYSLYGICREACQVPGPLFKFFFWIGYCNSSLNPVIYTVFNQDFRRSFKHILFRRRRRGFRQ
# [7] = target: Sigma non-opioid intracellular receptor 1 (Homo sapiens, UniProt Q99720); assay: Selectivity interaction (GPCR panel (PDSP screen)) EUB0000540a SIGMAR1
# [8] = target: 5-hydroxytryptamine receptor 2B (Homo sapiens, UniProt P41595); assay: Selectivity interaction (GPCR panel (PDSP screen)) EUB0000540a HTR2B
# [9] = target: Sigma intracellular receptor 2 (Homo sapiens, UniProt Q5BJF2); assay: Selectivity interaction (GPCR panel (PDSP screen)) EUB0000540a TMEM97
# [10] = target: 5-hydroxytryptamine receptor 2A (Homo sapiens, UniProt P28223); assay: Selectivity interaction (GPCR panel (PDSP screen)) EUB0000540a HTR2A
# [11] = target: Mitotic checkpoint serine/threonine-protein kinase BUB1 (Homo sapiens) (UniProt O43683); assay: Selectivity interaction (GPCR panel (PDSP screen)) EUB0000540a BUB1; conditions: at 1 µM
# [12] = target: T1, Gamma-aminobutyric acid receptor subunit alpha-1; assay: Selectivity interaction (GPCR panel (PDSP screen)) EUB0000540a GABRA1
# [13] = target: T4, Mitogen-activated protein kinase kinase kinase 13 (Homo sapiens) (UniProt O43283); assay: Selectivity interaction (KinomeScan (DiscoverX)) EUB0000540a MAP3K13; conditions: at 1 µM
# T4 sequence (whole entry): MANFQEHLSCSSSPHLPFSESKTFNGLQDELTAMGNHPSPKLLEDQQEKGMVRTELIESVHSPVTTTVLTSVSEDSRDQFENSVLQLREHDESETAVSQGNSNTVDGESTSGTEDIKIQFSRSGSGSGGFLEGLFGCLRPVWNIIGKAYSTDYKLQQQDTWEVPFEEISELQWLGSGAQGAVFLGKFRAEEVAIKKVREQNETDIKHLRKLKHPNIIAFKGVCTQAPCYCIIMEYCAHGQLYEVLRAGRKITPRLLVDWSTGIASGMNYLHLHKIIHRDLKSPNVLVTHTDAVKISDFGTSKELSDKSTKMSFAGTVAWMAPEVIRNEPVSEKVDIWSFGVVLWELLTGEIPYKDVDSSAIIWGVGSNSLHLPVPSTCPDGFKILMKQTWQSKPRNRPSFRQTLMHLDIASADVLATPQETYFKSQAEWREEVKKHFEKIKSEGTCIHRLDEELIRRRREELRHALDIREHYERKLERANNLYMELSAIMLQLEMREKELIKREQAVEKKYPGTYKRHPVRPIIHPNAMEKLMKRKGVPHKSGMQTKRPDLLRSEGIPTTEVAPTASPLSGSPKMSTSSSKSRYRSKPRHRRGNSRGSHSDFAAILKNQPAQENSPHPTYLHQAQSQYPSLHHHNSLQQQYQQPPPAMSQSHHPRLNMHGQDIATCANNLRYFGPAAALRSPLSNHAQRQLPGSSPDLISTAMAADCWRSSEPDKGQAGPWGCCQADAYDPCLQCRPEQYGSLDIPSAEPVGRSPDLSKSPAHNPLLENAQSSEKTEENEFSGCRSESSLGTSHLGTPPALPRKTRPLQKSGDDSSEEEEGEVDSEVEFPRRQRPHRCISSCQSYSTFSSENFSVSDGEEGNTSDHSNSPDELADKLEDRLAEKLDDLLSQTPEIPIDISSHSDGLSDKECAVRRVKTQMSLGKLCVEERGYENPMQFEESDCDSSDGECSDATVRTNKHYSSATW
# [14] = target: Serine/threonine-protein kinase WNK2 (Homo sapiens) (UniProt Q9Y3S1); assay: Selectivity interaction (GPCR panel (PDSP screen)) EUB0000540a WNK2; conditions: at 1 µM
# Serine/threonine-protein kinase WNK2 (Homo sapiens), sequence (Q9Y3S1 whole entry): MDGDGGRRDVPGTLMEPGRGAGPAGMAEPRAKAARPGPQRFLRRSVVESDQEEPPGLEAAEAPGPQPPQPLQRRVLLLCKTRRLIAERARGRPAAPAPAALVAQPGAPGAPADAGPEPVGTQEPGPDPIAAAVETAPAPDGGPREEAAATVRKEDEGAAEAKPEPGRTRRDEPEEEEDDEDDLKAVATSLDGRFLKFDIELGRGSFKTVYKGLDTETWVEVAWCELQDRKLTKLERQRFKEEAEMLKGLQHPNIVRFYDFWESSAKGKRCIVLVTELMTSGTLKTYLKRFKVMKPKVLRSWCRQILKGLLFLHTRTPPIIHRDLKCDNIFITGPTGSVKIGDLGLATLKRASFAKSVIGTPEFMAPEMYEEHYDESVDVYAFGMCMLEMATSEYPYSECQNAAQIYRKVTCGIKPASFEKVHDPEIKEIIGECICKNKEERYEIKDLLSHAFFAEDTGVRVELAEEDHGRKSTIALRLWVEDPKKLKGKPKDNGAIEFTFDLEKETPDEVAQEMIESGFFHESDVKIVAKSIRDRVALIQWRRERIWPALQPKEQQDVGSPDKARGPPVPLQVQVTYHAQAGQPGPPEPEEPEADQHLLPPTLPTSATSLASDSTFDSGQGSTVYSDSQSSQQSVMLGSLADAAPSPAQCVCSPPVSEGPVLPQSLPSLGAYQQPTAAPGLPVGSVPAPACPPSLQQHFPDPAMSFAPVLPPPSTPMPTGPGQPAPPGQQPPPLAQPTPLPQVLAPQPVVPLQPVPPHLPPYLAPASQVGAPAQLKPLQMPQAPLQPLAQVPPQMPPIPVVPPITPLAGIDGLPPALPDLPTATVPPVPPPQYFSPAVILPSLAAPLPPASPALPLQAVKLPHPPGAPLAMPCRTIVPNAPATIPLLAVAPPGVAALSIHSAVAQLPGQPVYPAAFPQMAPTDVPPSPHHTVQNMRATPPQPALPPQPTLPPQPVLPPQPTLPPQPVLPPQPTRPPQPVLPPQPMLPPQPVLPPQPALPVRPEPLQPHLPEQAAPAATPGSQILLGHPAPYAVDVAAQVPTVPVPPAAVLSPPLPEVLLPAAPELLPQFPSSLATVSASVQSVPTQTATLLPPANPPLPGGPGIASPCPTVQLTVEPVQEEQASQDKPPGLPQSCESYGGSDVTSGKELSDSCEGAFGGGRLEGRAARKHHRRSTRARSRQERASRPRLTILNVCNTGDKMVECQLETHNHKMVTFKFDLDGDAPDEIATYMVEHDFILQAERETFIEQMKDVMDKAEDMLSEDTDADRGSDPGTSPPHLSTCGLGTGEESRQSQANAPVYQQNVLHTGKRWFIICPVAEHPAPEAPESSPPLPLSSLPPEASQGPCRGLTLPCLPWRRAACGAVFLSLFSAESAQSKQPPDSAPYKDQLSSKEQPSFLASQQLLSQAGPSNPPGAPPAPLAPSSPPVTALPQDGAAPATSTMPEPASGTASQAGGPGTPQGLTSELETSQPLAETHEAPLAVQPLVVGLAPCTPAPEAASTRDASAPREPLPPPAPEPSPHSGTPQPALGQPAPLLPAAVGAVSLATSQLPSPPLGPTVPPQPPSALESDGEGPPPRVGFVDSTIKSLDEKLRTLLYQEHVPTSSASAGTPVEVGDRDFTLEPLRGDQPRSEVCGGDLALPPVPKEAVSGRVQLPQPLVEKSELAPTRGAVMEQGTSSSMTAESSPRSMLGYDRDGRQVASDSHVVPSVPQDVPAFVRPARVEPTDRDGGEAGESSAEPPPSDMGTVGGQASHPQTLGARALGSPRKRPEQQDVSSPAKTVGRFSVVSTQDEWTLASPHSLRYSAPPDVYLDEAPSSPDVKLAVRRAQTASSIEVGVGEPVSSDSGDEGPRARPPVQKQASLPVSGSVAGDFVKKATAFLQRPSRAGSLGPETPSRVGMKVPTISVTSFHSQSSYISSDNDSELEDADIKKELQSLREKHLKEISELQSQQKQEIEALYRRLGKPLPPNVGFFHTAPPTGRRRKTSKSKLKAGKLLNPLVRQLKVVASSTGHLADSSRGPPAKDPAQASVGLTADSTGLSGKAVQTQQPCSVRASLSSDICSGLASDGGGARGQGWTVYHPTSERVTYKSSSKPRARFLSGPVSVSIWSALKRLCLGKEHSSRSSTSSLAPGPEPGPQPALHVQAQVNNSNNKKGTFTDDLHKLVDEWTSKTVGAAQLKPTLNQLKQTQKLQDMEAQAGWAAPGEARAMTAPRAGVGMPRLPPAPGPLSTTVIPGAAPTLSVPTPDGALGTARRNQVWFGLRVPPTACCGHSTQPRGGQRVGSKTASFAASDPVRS
# Sigma non-opioid intracellular receptor 1, sequence (Q99720 whole entry): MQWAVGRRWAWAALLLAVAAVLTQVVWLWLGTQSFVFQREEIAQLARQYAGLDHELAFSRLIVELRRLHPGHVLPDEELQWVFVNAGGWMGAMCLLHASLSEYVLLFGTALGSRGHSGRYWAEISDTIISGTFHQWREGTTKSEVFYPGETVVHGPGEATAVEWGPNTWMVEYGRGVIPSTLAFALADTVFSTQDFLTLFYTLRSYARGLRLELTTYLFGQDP
# Mast/stem cell growth factor receptor Kit (Homo sapiens), P10721 [L576P], sequence (P10721 whole entry L576P): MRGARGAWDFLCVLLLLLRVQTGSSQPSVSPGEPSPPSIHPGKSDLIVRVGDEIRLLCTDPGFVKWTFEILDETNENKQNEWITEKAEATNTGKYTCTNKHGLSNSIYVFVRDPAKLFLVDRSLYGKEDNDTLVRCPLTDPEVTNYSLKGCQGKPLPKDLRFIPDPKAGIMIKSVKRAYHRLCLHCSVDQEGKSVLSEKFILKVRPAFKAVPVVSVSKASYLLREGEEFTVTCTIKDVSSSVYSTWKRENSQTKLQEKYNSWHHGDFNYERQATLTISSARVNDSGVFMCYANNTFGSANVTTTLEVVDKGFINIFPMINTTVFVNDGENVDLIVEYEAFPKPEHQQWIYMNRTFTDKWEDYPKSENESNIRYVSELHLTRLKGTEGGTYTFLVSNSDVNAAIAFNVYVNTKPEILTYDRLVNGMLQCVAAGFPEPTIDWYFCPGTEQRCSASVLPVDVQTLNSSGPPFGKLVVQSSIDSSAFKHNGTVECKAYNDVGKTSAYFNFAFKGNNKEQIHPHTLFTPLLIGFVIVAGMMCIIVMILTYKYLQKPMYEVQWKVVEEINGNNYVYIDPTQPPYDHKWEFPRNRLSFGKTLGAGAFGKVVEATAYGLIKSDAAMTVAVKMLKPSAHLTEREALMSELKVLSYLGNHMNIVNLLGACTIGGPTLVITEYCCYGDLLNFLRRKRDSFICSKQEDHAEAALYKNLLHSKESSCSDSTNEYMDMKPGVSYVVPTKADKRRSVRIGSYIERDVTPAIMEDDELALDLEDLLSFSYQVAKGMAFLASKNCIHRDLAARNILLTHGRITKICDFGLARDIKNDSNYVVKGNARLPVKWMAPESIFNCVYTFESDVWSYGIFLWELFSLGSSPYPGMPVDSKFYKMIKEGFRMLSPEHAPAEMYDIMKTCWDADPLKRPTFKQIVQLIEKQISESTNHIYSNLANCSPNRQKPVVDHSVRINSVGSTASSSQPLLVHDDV
# 5-hydroxytryptamine receptor 2A, sequence (P28223 whole entry): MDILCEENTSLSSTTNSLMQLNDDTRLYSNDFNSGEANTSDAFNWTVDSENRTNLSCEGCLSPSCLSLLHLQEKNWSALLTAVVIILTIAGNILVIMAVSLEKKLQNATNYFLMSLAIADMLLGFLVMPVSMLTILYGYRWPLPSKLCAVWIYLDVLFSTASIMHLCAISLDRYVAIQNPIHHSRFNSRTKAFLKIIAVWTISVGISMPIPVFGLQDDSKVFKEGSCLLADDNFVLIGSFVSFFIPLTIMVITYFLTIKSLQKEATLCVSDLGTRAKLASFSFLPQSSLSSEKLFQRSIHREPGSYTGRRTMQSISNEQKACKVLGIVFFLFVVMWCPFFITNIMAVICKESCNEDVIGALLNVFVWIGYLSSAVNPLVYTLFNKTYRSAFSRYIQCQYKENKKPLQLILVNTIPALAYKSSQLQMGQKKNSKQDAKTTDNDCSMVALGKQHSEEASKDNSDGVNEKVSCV
# Mitotic checkpoint serine/threonine-protein kinase BUB1 (Homo sapiens), sequence (O43683 whole entry, looked up): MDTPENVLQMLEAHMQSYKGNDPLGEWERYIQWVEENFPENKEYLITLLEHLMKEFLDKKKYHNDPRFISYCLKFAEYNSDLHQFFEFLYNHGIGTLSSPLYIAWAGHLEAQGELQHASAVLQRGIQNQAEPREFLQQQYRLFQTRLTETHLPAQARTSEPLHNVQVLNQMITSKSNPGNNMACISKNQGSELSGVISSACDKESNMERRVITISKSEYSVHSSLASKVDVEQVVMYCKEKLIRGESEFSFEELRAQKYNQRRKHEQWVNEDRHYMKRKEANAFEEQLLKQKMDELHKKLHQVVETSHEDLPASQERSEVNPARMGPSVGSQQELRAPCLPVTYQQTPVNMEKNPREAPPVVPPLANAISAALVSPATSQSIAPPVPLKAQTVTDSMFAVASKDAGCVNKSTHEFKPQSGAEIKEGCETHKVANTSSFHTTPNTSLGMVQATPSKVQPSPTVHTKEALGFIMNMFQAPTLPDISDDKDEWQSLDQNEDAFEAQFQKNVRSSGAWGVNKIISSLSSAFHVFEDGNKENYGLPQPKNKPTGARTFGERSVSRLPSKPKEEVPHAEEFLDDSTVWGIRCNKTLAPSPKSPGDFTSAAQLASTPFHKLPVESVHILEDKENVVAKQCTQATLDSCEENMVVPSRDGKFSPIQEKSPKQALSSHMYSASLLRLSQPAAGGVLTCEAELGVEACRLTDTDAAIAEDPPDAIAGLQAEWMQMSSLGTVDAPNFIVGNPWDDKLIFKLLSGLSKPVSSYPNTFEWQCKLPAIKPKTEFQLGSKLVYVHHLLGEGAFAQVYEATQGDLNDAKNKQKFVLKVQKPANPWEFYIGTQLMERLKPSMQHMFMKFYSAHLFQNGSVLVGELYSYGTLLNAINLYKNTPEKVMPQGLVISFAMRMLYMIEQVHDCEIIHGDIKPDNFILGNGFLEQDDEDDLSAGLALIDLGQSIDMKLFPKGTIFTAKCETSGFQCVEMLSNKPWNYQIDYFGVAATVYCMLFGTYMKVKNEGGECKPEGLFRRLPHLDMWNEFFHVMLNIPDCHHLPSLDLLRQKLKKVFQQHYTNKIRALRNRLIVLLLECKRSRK
smiles,measurement,setting,value
O=C(c1ccc(F)cc1)N1CC(COc2ccc(Br)cc2)(C(=O)O)C1 [PF-04475866],Ki,Histamine H4 receptor,> 10000 nM
same,Ki,D(1A) dopamine receptor,> 10000 nM
O=C(Nc1cccnn1)N1CCC(=Cc2cccc(Oc3ccc(C(F)(F)F)cn3)c2)CC1,% of control,[1],0%
same,Ki,[2],1140 nM
same,% of control,[3],45%
same,% of control,[4],42%
O=C(Nc1cccnn1)N1CC(C/C=C/c2cncc(Oc3ccc(C(F)(F)F)cn3)n2)C1,Ki,[5],1660 nM
same,Ki,[6],596 nM
same,Ki,[7],472 nM
same,Ki,[8],1340 nM
same,Ki,[9],437 nM
same,Ki,[10],249 nM
same,% of control,[11],1.4%
same,Ki,[12],1140 nM
same,% of control,[13],0%
same,% of control,[14],0%
